Earlier results on two molecules are cited in US10716757B2, “Liposomal formulation for the oral hepatic delivery of drugs” (Universität Heidelberg, priority 2015, dated 2020).

The conditions of series [1]: film method followed by extrusion, reference [17].
The conditions of series [2]: Myrcludex B per se, no liposomes.

A value given as a limit tells only on which side of the number the result lay.

For the molecule `C[C@@H](O)[C@@H]1NC(=O)[C@H](CCCCN)NC(=O)[C@@H](Cc2c[nH]c3ccccc23)NC(=O)[C@H](Cc2ccccc2)NC(=O)[C@@H](NC(=O)[C@H](N)Cc2ccccc2)CSSC[C@@H](C(=O)N[C@H](CO)[C@@H](C)O)NC1=O` [octreotide], the encapsulation efficiency in series [1] is recorded as 13.0 % (m/m).
Consider Myr-HBVpreS/2-48 [Myrcludex B], for which the oral bioavailability in series [2] is less than 1%.
